From US3954793A, “1-(2-Propynyl)-1 H-indazole compounds” (priority 1973, dated 1976)

Columns and labels:
[1] = tested on: IN/WHO strain house flies; test: topical application, percent kill after 24 hours, susceptible IN/WHO strain; format: in vivo, female); details: Pyrolan 0.63 μg/fly
Description: (§1) In Table IX, and in the tables following it, the doses of topically applied insecticides and of synergists unless otherwise noted are expressed as micrograms per fly (μg/fly).
The synergistic effect of O-(2-propynyl) oximes with mobam was determined from topical application tests on susceptible, female, IN/WHO strain house flies and from tests on resistant, female, Rutgers A strain house flies. The synergist and insecticide were dissolved in ACS Grade acetone in such quantities that a 1.0 μ liter volume applied to the thorax of 3-to-5 day old CO2 -anesthetized female adult house flies contained the desired dosage. After being treated, the flies were confined, 10 to a plaster petri dish, with 3-5 dishes/treament, and held for 24-hr. observation of mortality. Reconstituted skim milk on cotton dental wicks was provided during the holding period. The percent kills after 24 hours are shown in Table X for the IN/WHO strain and Table XI for the Rutgers A strain.
The synergistic effect of benzyl 2-propynyl ethers with mobam was determined from topical application tests on IN/WHO and Rutgers A strain houseflies, following the procedure of Example 5. The percent kills after 24 hours are shown in Table XIV for the IN/WHO strain and in Table XV for the Rutgers A strain.
The effects of varying the insecticide dose and the synergist-insecticide ratio are further illustrated, with synergist compounds II-D, II-E, II-F and Mobam insecticide, in Tables XVI, XVII and XVIII. […]
The effect on IN/WHO flies of synergist compound IV-C, identified in Table IV, with mobam was determined by the topical application procedure of Example 5. […]
(§2) The synergistic effect with GS 13005 of compounds I-A, I-B, I-D, I-E, I-F, I-G and I-I was determined from topical application tests to IN/WHO strain, Rutgers A strain and polyvalent CH strain houseflies using the procedures of Example 5. The percent kills of the IN/WHO strain flies after 24 hours are shown in Table XXVIII; of the Rutgers A strain, in Table XXIX; and of the polyvalent CH strain, in Table XXX. The doses of insecticide alone to the CH strain files caused 10-40% mortality.
The synergistic effect with Diazinon and GS 13005 of various of the benzyl 2-propynyl ethers identified in Tables II and IIa was determined by topical application tests on IN/WHO strain, and Rutgers A strain and polyvalent, resistant, CH strain houseflies using the procedures of Example 5. The percent kills after 24 hours of IN/WHO strain flies are shown in Table XXXI; of Rutgers A strain flies, in Table XXXII; and of CH strain flies, in Table XXXIII. The doses of insecticide alone to the CH strain flies caused 10-40% mortality. […]
The synergistic effect on IN/WHO strain flies and Rutgers A strain flies of compound IV-C with GS 13005 and with Diazinon was determined by the topical application procedure of Example 5. The percent kills of IN/WHO strain flies after 24 hours are shown in Tables XXXVI and XXXVII; the percent kills of Rutgers A strain flies are shown in Tables XXXVIII and XXXIX.

[2] = tested on: Wilson strain house flies; format: in vivo, Wilson strain (susceptible); details: for Contact Synergistic Ratio, Pyrolan: LC50 pyrolan alone / LC50 with synergist, synergist to insecticide 5:1 by weight; for Contact Synergistic Ratio, Carbaryl: in vivo
Description: The required solutions of the insecticide and of the synergist compound were prepared in acetone at a concentration of 1 milligram per milliliter. One-pint wide mouth glass jars were coated with the appropriate insecticide-synergist combination by rolling the jars containing aliquots of the appropriate solutions diluted to three milliliters with acetone to deposit, by evaporation, a film of the test materials. The flies were transferred under carbon dioxide anesthesia and held in the jar at room temperature. Perforated aluminum foil was used to cover the jars and to hold cotton saturated with 10% sugar solution. Counts were made at intervals, but the recorded mortality was based on 24-hour kill, rather than knockdown. All prostrate non-moving flies were considered dead. A determination was then made of the contact synergistic ratio [SR], which is the ratio of the LC50 of insecticide alone to the LC50 of the insecticide when applied together with the synergist. The LC50 of the insecticide was estimated from a log-probit plot of percent kill versus dosage. […] The LC50 of the combination of insecticide and synergist was determined at a synergist to insecticide parts by weight ratio of five to one.

[3] = tested on: Swiss albino, white male mice; test: acute toxicity and synergism of acute toxicity in mice; format: in vivo; details: 48 hours, eight mice
Description: To determine the acute toxicity of dimetilan alone, eight dosage levels of Dimetilan, ranging from 4 to 32 mg per kg were applied to eight, Swiss, albino, white, male mice per dosage level. The mice weighed approximately 23 to 27 grams and were five to six weeks old. The Dimetilan was administered intraperitoneally in 0.1 ml of corn oil one hour after the administration of the same dose of corn oil alone.
To determine the acute toxicity of the synergist alone, various synergists were administered intraperitoneally at a dose of 1000 mg/kg to each of a group of eight mice. The number of animals dead at the end of 72 hours is reported in the left hand column of Table XXXXVI.
The synergism of the acute toxicity of Dimetilan by various synergists was determined by tests on Swiss albino, white male mice aged five to six weeks and weighing 23 to 27 grams. The synergists and insecticides were dissolved in corn oil and the drugs were dissolved in distilled water. All compounds were administered intraperitoneally by injection in the lower quadrent of the abdomen. The synergist was administered in 0.1 ml of corn oil one hour prior to administration of the insecticide. Eight mice were treated, per dosage, with each synergist. The mice were watched for a minimum of 6 hours while held in a glass jar with bedding individually after intraperitoneal injection of the test solutions. Lethality was noted, the animals were weighed and transferred in cages, and food and water were supplied. Control mice were given 0.1 ml of corn oil at the time of administration of the synergist to the test mice and 0.1 ml corn oil plus Dimetilan at the time of administration of the insecticide to the test mice.
By the same procedure, the synergism of acute toxicity of GS 13005, Secobarbital and 6-dimethylamino-4,4-diphenyl-3-heptanone [Methadone] was determined.

male mice = test: extension of sleeping time of depressant drugs by synergists; format: in vivo, male mice (Swiss albino white); details: for Mean Sleeping Time, Noludar / Relative Sleeping Time, Noludar: Noludar 110 mg/kg; for Relative Sleeping Time, Noludar / Relative Sleeping Time, Secobarbital: treated/control; for Mean Sleeping Time, Secobarbital / Relative Sleeping Time, Secobarbital: Secobarbital 37 mg/kg
Description: The selectivity of the synergist compounds of this invention is illustrated by the results of sleeping-time extension tests and of acute toxicity tests on Swiss albino white male mice.
The effect of various synergist compounds on sleeping time of sodium secobarbital [Secobarbital] and of 3,3-diethyl-5-methyl-2,4-dioxypiperidine [Noludar] was determined by administering the drug, with and without synergist, to approximately 38-day old male mice weighing from 25 to 30 grams. Synergists were administered in each of two doses, 74.0 mg/kg (dilution being 2.0 mg/0.1 ml corn oil), and 110.0 mg/kg (dilution 3.0 mg/0.1 ml oil). Secobarbital was administered at a dose of 37.0 mg/kg (dilution 1.0 mg/0.1 ml water). Noludar was administered at a dose of 110.0 mg/kg (dilution 3.0 mg/0.1 ml water). The synergist was administered one hour prior to administration of the Secobarbital or Noludar. Secobarbital and Noludar sleeping times were obtained for both the control (drug only) and the treated (synergist plus drug) mice by noting the time lapse between the administration of the drug and the recovery of the righting reflex, i.e. when the animal regains conciousness and can walk up an inclined wooden tray with coordination. The relative sleeping time (R.S.) was noted. The R.S. is the extended sleeping time in the treated mice (synergist plus drug) divided by the sleeping time in the control mice (drug only). The mean sleeping time for the treated mice and the R.S. are shown on Table XXXXIV for various synergist compounds.

[4] = tested on: polyvalent resistant (CH strain) houseflies; test: whole plant or invertebrate; format: in vivo; details: insecticide alone at the doses of the CH strain tables; 1440 min
Description: The effect of O-(2-propynyl) oximes with Dimetilan and with GS 13798 was obtained from tests on polyvalent resistant (CH strain) houseflies that had been chilled and to the dorsal region of which was applied an acetone solution of synergist and insecticide at a ratio of two to one. Duplicate tests were performed using 10 four to five-day old female houseflies per test. After dosage, the flies were put in a plastic petri dish with cotton soaked in a sugar-water solution. These doses of insecticide used without synergist caused 10-40% mortality.
as §1
The effect of compounds II-C, II-D and II-E with Dimetilan and GS 13798 was determined, following the procedure of Example 5, from tests on polyvalent resistant (CH strain) houseflies. These doses of insecticide used without synergist caused 10-40% mortality.
as §2
The synergistic effect with Diazinon and GS 13005 of various of the benzyl 2-propynyl ethers identified in Tables II and IIa was determined by topical application tests on IN/WHO strain, and Rutgers A strain and polyvalent, resistant, CH strain houseflies using the procedures of Example 5. The percent kills after 24 hours of IN/WHO strain flies are shown in Table XXXI; of Rutgers A strain flies, in Table XXXII; and of CH strain flies, in Table XXXIII. The doses of insecticide alone to the CH strain flies caused 10-40% mortality.
The synergistic effect with pyrethrum of various synergist compounds was determined by topical application tests on polyvalent, resistant CH strain houseflies following the procedure of Example 5. Application of the insecticide alone caused 10-40% mortality.

[5] = Dimetilan 8 + synergist 240 mg/kg i.p.
[6] = synergist 110 mg/kg one hour prior
[7] = synergist 74 mg/kg one hour prior

Row | Compound | 24 hour percent mortality, Pyrolan alone [1] [%] | LC50 of insecticide alone ([2]; Wilson strain fly, 24-hour kill, no synergist) [mg/jar] | number of mice dead, with Dimetilan [3, 5] | Contact Synergistic Ratio, Pyrolan [2] | Contact Synergistic Ratio, Carbaryl [2] | Mean Sleeping Time, Noludar (male mice; [6]) [min] | Relative Sleeping Time, Noludar (male mice; synergist 110 mg/kg) | Mean Sleeping Time, Secobarbital (male mice; [6]) [min] | Relative Sleeping Time, Secobarbital (male mice; synergist 110 mg/kg) | mortality, insecticide used without synergist [4] | Mean Sleeping Time, Secobarbital (male mice; [7]) [min] | Relative Sleeping Time, Secobarbital (male mice; synergist 74 mg/kg) | number of mice dead, with Dimetilan ([3]; Dimetilan 8 + synergist 80 mg/kg i.p.)
1 | Cc1cc(OC(=O)N(C)C)n(-c2ccccc2)n1 [Pyrolan, 3-methyl-1-phenyl-5-pyrazolyl-N-dimethylcarbamate, reference compound] | 0 | 0.15 | – | – | – | – | – | – | – | – | – | – | –
2 | C#CCn1nc(Cl)c2ccccc21 [III-B] | – | – | 0 | 30 | 117 | 46 | 1.0 | 66 | 1.3 | – | – | – | –
3 | C#CCn1ncc2ccc(Cl)cc21 [III-D] | – | – | 1 | 25 | 250 | 45 | 1.5 | 55 | 1.2 | – | – | – | –
4 | C#CCn1ncc2cc([N+](=O)[O-])ccc21 [III-A] | – | – | 0 | 30 | 143 | 32 | 1.0 | 50 | 1.1 | – | – | – | –
5 | CNC(=O)Oc1cccc2ccc(C)nc12 [GS 13798, 8-(2-methylquinolyl)-N-methylcarbamate, reference compound] | – | – | – | – | – | – | – | – | – | 10-40% | – | – | –
6 | C#CCn1nc(Cl)c2ccc([N+](=O)[O-])cc21 [III-C, N-(2-propynyl)-3-chloro-6-nitroindazole] | – | – | – | 10 | 53 | – | – | – | – | – | – | – | –
7 | C#CCOCc1ccc(Cl)cc1 [II-A] | – | – | – | 7 | 50 | – | – | – | – | – | – | – | –
8 | C#CCON=Cc1ccc(N(C)C)cc1 [I-C] | – | – | 0 | 20 | 200 | 34 | 1.0 | 108 | 1.8 | – | 30 | 1.1 | –
9 | C#CCOCc1ccc(Cl)cc1Cl [II-B] | – | – | – | 15 | 50 | – | – | – | – | – | – | – | –
10 | C#CCOC(c1ccc(Cl)cc1Cl)C(C)[N+](=O)[O-] (centres unmarked) [IV-A, 2-propynyl 1-(2,4-dichlorophenyl)-2-nitropropyl ether] | – | – | 7 | 10 | 134 | 78 | 2.7 | – | – | – | 56 | 2.3 | 4
